Source: PubChem BioAssay (NCI)
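Dose response: 5 concentrations. Exposure: 48 h. Format: 96-well plates. Endpoint: linear interpolation; highest concentration if not reached. At the TGI there is no net growth.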

Legend:
Test in all cases: NCI tumour cell line growth inhibition, 48 h
SNB-78 CNS = test system: SNB-78 CNS
SNB-19 CNS = test system: SNB-19 CNS
DMS 114 small cell lung = test system: DMS 114 small cell lung
UO-31 renal = test system: UO-31 renal
SN12C renal = test system: SN12C renal
BT-549 breast = test system: BT-549 breast
A549 NSCLC = test system: A549 NSCLC
SNB-75 CNS = test system: SNB-75 CNS
SF-295 CNS = test system: SF-295 CNS
KM12 colon = test system: KM12 colon

SMILES | TGI (SNB-78 CNS) | TGI (SNB-19 CNS) | TGI (DMS 114 small cell lung) | TGI (UO-31 renal) | TGI (SN12C renal) | TGI (BT-549 breast) | TGI (A549 NSCLC) | TGI (SNB-75 CNS) | TGI (SF-295 CNS) | TGI (KM12 colon)
O=C1/C(=C/c2ccc(O)cc2)CCC1CNc1ccc(Cl)cc1 (stereo unspecified) | 33.8 µM | 28.6 µM | 9.02 µM | 9.82 µM | 9.25 µM | 26.5 µM | 21.6 µM | 29.7 µM | 16.7 µM | 8.45 µM
O=C(CC1C(=O)Nc2ccccc2S1=O)Nc1cccc(Cl)c1 (stereo unspecified) | > 100 µM | > 88.9 µM | > 100 µM | > 89.8 µM | > 100 µM | 77.6 µM | > 100 µM | 64.1 µM | > 100 µM | > 81.5 µM
Cc1cc(Cl)ccc1N1C(=O)C(=O)C(c2nc3ccccc3s2)C(=O)C1=O | > 100 µM | > 100 µM | > 100 µM | > 100 µM | > 100 µM | – | > 100 µM | > 100 µM | > 100 µM | > 100 µM
CCOc1ccc(NC(=O)C2=C(C)NC(C)=C(C(=O)Nc3ccc(OCC)cc3)C2c2ccc([N+](=O)[O-])cc2)cc1 | > 100 µM | > 100 µM | > 100 µM | > 100 µM | > 100 µM | – | > 100 µM | > 100 µM | > 100 µM | > 100 µM
C/C=C/C1(NS(=O)(=O)c2ccc(C)cc2)CCC(C(C)(C)C)CC1 (stereo unspecified) | 64.1 µM | > 100 µM | 62.3 µM | 62.3 µM | 34.7 µM | – | > 100 µM | > 100 µM | 61.4 µM | 39 µM
Cc1cccc(C)c1NC(=O)C(=O)C1C(=O)N(c2ccccc2)N=C1N (stereo unspecified) | > 100 µM | > 100 µM | > 100 µM | > 100 µM | > 100 µM | – | > 100 µM | > 100 µM | > 100 µM | > 100 µM
CCC(=O)O[C@@H]1C2C(OC(C)=O)C34COC(C)([C@@H]3C3C(C[C@]3(C)OC(C)=O)[C@@H](OC(=O)c3ccccc3)C4=O)[C@H](OC(C)=O)[C@@]2(OC(C)=O)C[C@@H]1C (stereo partly specified) | 73.4 µM | 45.8 µM | 51.3 µM | > 100 µM | > 100 µM | – | > 100 µM | 12.4 µM | 48.7 µM | > 100 µM
C[Si](C)(C)/C(Br)=C\CCN1C(=O)CCC1O (stereo unspecified) | > 100 µM | > 100 µM | > 100 µM | > 100 µM | > 100 µM | – | > 100 µM | > 100 µM | > 100 µM | > 100 µM
C[C@H](NC(=O)OC1C2C=CC(O)C1CC2)c1ccccc1 (stereo partly specified) | > 100 µM | > 100 µM | > 100 µM | > 100 µM | > 100 µM | – | > 100 µM | > 100 µM | > 100 µM | > 100 µM
O=C(O)/C(Cl)=C(/Cl)C(=O)Nc1cccc(Cl)c1 | 61 µM | > 92.5 µM | 32.2 µM | 37.4 µM | 36.9 µM | 34.1 µM | > 100 µM | 40.1 µM | > 62.2 µM | 47.7 µM
N#CC(C#N)=C1NC(=O)C(c2ccccc2)C(=O)N1 (stereo unspecified) | > 100 µM | > 100 µM | > 100 µM | > 100 µM | > 100 µM | – | > 100 µM | > 100 µM | > 100 µM | > 100 µM
CCCCCCCCCCCCC(Br)C(=O)SCCNC(=O)CCNC(=O)[C@@H](O)C(C)(C)COP(=O)(O)OP(=O)(O)OCC1OC(n2cnc3c(N)ncnc32)C(O)C1OP(=O)(O)O (stereo partly specified) | > 56.5 µM | > 56.5 µM | > 56.5 µM | > 56.5 µM | > 56.5 µM | – | > 56.5 µM | > 56.5 µM | > 56.5 µM | > 56.5 µM
